Assay results published in patent US7662854B2, “HIF hydroxylase inhibitors” (ISIS Innovation Limited, priority 2002, dated 2010).

Assays:
HIF hydroxylases = assay: assays in which the compound replaces 2-oxoglutarate as co-substrate; format: biochemical; conditions: compared with 2-oxoglutarate under analogous conditions
Source text: Another aspect of the invention concerns analogues of 2-oxoglutarate that act as improved (relative to 2-oxoglutarate) co-substrates for the HIF hydroxylases. Such a compound is 3-fluoro 2-oxoglutarate.

HIF hydroxylase = assay: capture assay for inhibitors of HIF modification (pVHL capture); format: biochemical; conditions: result in words; screening at 2 mM of the potential inhibitor, RCC4 cell extract, 100 μM FeCl2
Protocol: In vitro screening of potential inhibitors of HIF modification was performed using a capture assay. A Gal/HIF-1α/VP16 fusion protein expressing HIF-1α residues 549-582 was prepared by IVTT (see British Application No. 0118952.1) and used as a substrate in the assay. The unlabelled substrate was immunopurified on beads, washed, and aliquots incubated in the presence of RCC4 cell extract, with 100 μM FeCl2 and 2 mM of the potential inhibitor. The inhibitors were either dissolved in DMSO or Tris as indicated. Controls, where no inhibitor but the equivalent amount of DMSO or Tris was added, were also performed. After washing, the beads were assayed for their ability to interact with 35-S labelled pVHL IVTT. Hydroxylation of the fusion protein by HIF hydroxylase present in the cell extract leads to the ability to capture the labelled pVHL and the amount of labelled protein bound to the fusion protein can then be measured to determine relative HIF hydroxylase activity. FIGS. 1 to 5 show HIF hydroxylase activity in the presence of a particular inhibitor relative to that seen in the absence of the inhibitor (the DMSO/Tris control).

| SMILES | level of HIF hydroxylation (HIF hydroxylases) | activity as modulator of HIF prolyl hydroxylase (HIF hydroxylase) |
| --- | --- | --- |
| O=C(O)CC(F)C(=O)C(=O)O (centres unmarked) [3-fluoro 2-oxoglutarate, 3-fluoro-2-oxoglutaric acid] | higher level of HIF hydroxylation | – |
| O=C(O)CC1CC(=O)N(O)C1=O (centres unmarked) [Is52, (1-hydroxy-2,5-dioxo-pyrrolidin-3-yl) acetic acid] | – | highly active |
